These results are taken from ChEMBL document CHEMBL4196089, “Design, synthesis, biological evaluation and in vivo testing of dual phosphodiesterase 5 (PDE5) and histone deacetylase 6 (HDAC6)-selective inhibitors for the treatment of Alzheimer's disease” (Eur J Med Chem, 2018).

By IC50 is commonly meant the point on the concentration scale where inhibition reaches its midpoint.

A short description of data set [1]: Effective permeability of the compound at 50 uM after 18 hrs by UV spectroscopy based PAMPA. The following applies: read-out: Peff. It counts as ADME. For orientation: In PAMPA a lipid-coated filter parts donor from acceptor wells.
Data set [2] is described as follows: cells. The following applies: Homo sapiens, SH-SY5Y, 2 h, read-out: FC.
Data set [3] addresses T1, Protein deacetylase HDAC6 (Homo sapiens, UniProt Q9UBN7).
T1 sequence (Q9UBN7 whole entry): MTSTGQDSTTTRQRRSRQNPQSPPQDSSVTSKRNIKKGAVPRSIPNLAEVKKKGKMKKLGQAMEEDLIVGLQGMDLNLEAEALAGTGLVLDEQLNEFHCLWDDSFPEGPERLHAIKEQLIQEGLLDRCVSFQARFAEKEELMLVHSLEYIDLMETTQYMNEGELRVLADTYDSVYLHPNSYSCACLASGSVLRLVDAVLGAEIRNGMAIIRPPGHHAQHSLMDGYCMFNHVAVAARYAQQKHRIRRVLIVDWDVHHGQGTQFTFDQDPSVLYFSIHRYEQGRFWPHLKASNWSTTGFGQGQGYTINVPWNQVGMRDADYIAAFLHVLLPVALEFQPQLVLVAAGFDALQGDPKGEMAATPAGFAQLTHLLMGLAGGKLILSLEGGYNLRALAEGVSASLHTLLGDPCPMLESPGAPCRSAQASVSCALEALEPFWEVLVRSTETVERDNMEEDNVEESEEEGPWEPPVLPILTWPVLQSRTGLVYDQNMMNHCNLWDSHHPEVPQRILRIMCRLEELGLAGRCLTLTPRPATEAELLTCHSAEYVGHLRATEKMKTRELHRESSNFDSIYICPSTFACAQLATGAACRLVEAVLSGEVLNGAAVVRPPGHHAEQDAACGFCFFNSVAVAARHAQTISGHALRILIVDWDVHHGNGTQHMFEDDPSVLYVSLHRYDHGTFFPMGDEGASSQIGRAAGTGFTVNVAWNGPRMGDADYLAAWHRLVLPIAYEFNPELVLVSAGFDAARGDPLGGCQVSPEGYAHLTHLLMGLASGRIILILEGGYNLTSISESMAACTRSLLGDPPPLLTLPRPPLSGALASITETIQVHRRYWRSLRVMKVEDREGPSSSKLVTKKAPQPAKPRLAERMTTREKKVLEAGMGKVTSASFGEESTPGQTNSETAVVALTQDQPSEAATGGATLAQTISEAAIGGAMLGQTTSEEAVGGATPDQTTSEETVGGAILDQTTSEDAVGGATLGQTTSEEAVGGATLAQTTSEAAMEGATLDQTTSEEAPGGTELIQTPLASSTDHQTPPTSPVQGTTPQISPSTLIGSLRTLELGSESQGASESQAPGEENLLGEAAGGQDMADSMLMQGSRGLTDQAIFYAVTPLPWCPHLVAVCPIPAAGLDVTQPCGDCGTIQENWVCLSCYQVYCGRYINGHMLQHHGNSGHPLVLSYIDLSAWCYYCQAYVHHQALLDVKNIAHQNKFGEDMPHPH
In words: Inhibition of full length human recombinant N-terminal GST-tagged HDAC6 expressed in baculovirus infected sf9 cells using fluorogenic HDAC substrate 3 after 30 mins by fluorescence assay.

Data set [4] can be described thus: cells. The following applies: Homo sapiens, SH-SY5Y, 2 h, read-out: FC. This is another data set of the same source.
Data set [5] in a line: cells. The following applies: Homo sapiens, SH-SY5Y, 2 h, read-out: FC. This is another data set of the same source.
The nature of data set [6]: Cytotoxicity against human THLE2 cells after 72 hrs by vialight cell proliferation assay. The following applies: read-out: LC50. The class given is cell-based, THLE-2.
Data set [7] addresses T2, Histone deacetylase 1 (Homo sapiens, UniProt Q13547). The data set is described as follows: Inhibition of full length human recombinant C-terminal FLAG/His-tagged HDAC1 expressed in baculovirus infected sf9 cells using fluorogenic HDAC substrate 3 after 30 mins by fluorescence assay.
Data set [8] deals with T3, Histone deacetylase 2 (Homo sapiens, UniProt Q92769). The data set is described as follows: Inhibition of full length human recombinant C-terminal His-tagged HDAC2 expressed in baculovirus infected sf9 cells using fluorogenic HDAC substrate 3 after 30 mins by fluorescence assay.
Data set [9] addresses Histone deacetylase 3/Nuclear receptor corepressor 2 (HDAC3/NCoR2) (Homo sapiens, UniProt O15379). The data set is described as follows: Inhibition of full length human recombinant C-terminal His-tagged HDAC3/N-terminal GST-tagged NCOR2 (95 to 489 residues) expressed in baculovirus infected sf9 cells using fluorogenic HDAC substrate 3 after 30 mins by fluorescence assay.
Data set [10] concerns the target T4, cGMP-specific 3',5'-cyclic phosphodiesterase (Homo sapiens, UniProt O76074). In words: Inhibition of full length human recombinant N-terminal GST-tagged PDE5A1 expressed in baculovirus infected sf9 cells using cGMP as substrate after 30 mins by fluorescence assay.
A further data set deals with Histone deacetylase 3 (Homo sapiens, UniProt O15379). The data set is described as follows: Inhibition of HDAC3 (unknown origin).
Data set [11] concerns the target T2, Histone deacetylase 1. The data set is described as follows: Inhibition of HDAC1 (unknown origin).
In data set [12] the target is T4, cGMP-specific 3',5'-cyclic phosphodiesterase. In words: Inhibition of PDE5A (unknown origin).
In data set [13] the target is T3, Histone deacetylase 2. The class given is ADME.
Data set [14] concerns the target T1, Protein deacetylase HDAC6. In words: Inhibition of HDAC6 (unknown origin).
The nature of data set [15]: Effective permeability of the compound at 10 uM after 18 hrs by LC-MS/MS based PAMPA. It counts as ADME. The following applies: read-out: Peff.
Data set [16] is described as follows: Inhibition of class-1 HDAC in human SH-SY5Y cells assessed as induction of AcH3K9 level at 500 nM after 0.5 to 2 hrs by Western blot analysis. The class given is cell-based. The following applies: 0.5 µM. In general terms: A western blot detects proteins with antibodies after separation by electrophoresis.
In data set [17] the target is cGMP-inhibited 3',5'-cyclic phosphodiesterase 3A (Homo sapiens, UniProt Q14432). In words: Inhibition of PDE3A (unknown origin) using FAM-cGMP as substrate by fluorescence assay.

SMILES strings stand for the structures.

T2 sequence (Q13547 whole entry): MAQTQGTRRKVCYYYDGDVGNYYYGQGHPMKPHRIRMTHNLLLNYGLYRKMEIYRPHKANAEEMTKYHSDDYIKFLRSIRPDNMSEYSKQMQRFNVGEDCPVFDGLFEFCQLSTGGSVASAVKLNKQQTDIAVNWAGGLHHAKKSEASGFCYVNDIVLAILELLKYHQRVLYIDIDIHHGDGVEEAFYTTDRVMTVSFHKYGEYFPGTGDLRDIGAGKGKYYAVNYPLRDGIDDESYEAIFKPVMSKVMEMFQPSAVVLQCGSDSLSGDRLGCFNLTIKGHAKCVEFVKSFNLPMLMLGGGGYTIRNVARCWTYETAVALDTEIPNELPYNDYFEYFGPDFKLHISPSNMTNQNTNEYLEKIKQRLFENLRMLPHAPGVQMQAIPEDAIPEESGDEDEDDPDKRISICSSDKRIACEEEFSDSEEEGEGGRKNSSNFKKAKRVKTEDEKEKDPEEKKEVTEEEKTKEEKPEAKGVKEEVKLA
T3 sequence (Q92769 whole entry, the tested form may be a part): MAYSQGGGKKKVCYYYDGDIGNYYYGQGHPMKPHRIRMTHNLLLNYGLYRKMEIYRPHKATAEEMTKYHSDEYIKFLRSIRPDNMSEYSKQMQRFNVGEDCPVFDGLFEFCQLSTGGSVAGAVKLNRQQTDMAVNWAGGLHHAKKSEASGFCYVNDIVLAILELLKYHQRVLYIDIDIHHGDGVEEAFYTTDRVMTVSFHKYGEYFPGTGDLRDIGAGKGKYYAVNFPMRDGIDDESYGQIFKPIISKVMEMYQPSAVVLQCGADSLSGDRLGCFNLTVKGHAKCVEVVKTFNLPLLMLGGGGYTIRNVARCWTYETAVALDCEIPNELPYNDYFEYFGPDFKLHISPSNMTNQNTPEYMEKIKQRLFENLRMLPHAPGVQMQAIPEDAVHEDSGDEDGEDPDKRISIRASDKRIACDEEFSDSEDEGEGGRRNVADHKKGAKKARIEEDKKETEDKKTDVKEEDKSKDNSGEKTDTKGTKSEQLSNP
Histone deacetylase 3/Nuclear receptor corepressor 2 (HDAC3/NCoR2), sequence (O15379 whole entry, the tested form may be a part): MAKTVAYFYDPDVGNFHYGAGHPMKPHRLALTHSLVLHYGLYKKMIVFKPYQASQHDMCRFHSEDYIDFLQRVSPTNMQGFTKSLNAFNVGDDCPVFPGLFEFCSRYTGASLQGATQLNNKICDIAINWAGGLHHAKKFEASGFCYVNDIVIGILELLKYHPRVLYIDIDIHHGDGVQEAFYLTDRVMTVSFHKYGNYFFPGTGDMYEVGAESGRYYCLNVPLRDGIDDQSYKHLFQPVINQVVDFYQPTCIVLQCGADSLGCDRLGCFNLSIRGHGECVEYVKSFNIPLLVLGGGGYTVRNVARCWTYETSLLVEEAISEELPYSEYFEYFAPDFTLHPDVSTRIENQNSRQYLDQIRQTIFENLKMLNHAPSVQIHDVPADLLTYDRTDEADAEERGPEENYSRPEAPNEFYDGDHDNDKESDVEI
Histone deacetylase 3/Nuclear receptor corepressor 2 (HDAC3/NCoR2), sequence (Q9Y618 whole entry, further chain, the tested form may be a part): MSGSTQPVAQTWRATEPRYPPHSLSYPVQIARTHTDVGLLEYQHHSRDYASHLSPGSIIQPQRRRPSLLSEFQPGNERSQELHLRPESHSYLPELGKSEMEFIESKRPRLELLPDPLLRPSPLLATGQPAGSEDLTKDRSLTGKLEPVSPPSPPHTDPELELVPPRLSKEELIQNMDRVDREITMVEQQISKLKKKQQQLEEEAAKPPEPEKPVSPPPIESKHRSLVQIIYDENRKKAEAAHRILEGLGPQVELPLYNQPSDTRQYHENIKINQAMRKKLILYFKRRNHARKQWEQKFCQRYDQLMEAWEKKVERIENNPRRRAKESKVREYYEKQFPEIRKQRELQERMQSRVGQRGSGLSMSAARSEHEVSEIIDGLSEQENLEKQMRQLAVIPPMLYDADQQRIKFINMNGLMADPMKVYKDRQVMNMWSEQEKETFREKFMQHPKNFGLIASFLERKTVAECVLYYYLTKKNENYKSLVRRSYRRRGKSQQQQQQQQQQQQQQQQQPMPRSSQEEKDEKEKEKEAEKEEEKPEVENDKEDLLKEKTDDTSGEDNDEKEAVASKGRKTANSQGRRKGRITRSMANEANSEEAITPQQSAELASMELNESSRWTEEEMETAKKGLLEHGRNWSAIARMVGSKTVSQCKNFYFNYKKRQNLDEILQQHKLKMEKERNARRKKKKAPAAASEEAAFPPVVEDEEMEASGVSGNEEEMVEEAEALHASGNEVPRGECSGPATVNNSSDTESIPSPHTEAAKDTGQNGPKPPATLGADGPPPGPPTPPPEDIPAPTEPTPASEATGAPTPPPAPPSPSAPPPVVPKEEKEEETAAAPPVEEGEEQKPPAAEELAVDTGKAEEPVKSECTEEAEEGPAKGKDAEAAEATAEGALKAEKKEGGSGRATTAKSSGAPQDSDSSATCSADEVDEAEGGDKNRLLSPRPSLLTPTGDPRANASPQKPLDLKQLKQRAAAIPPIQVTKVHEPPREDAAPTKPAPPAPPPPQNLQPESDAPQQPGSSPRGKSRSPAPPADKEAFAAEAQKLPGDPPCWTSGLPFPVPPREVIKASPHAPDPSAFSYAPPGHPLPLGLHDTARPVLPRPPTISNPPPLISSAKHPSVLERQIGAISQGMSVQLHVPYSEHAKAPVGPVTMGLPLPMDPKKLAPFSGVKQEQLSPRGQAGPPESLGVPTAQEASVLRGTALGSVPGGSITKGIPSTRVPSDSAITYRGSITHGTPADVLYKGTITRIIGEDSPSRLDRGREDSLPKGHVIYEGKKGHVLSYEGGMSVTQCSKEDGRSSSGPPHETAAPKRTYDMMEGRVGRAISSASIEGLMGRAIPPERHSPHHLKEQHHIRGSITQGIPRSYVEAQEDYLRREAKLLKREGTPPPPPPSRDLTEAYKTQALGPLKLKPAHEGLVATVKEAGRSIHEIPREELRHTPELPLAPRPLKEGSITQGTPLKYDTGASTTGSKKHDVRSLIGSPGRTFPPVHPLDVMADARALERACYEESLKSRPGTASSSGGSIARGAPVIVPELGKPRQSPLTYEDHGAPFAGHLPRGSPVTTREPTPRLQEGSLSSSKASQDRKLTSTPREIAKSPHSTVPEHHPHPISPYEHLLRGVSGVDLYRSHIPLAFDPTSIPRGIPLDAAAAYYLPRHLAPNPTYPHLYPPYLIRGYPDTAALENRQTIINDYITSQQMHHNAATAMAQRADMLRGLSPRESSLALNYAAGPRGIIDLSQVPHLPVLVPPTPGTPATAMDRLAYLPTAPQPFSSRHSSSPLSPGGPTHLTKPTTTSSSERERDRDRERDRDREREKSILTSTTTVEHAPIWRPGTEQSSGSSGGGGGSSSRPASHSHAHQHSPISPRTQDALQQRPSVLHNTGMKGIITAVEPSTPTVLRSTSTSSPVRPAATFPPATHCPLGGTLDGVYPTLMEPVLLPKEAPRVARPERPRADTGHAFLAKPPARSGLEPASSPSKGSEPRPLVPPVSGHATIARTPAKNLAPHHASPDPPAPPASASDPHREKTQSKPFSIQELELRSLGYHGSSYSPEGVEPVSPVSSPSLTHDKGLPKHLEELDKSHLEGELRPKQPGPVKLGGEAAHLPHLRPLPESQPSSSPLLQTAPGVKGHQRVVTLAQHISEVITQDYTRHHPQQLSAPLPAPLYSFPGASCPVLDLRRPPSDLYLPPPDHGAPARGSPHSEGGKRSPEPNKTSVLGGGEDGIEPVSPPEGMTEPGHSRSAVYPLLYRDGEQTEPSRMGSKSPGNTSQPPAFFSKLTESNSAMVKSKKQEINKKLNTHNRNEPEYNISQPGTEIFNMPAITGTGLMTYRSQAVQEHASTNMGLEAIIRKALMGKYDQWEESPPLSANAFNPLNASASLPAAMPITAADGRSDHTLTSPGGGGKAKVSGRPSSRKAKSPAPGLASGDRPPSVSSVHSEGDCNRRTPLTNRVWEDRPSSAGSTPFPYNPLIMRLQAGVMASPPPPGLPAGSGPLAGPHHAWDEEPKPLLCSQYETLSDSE
cGMP-inhibited 3',5'-cyclic phosphodiesterase 3A, sequence (Q14432 whole entry): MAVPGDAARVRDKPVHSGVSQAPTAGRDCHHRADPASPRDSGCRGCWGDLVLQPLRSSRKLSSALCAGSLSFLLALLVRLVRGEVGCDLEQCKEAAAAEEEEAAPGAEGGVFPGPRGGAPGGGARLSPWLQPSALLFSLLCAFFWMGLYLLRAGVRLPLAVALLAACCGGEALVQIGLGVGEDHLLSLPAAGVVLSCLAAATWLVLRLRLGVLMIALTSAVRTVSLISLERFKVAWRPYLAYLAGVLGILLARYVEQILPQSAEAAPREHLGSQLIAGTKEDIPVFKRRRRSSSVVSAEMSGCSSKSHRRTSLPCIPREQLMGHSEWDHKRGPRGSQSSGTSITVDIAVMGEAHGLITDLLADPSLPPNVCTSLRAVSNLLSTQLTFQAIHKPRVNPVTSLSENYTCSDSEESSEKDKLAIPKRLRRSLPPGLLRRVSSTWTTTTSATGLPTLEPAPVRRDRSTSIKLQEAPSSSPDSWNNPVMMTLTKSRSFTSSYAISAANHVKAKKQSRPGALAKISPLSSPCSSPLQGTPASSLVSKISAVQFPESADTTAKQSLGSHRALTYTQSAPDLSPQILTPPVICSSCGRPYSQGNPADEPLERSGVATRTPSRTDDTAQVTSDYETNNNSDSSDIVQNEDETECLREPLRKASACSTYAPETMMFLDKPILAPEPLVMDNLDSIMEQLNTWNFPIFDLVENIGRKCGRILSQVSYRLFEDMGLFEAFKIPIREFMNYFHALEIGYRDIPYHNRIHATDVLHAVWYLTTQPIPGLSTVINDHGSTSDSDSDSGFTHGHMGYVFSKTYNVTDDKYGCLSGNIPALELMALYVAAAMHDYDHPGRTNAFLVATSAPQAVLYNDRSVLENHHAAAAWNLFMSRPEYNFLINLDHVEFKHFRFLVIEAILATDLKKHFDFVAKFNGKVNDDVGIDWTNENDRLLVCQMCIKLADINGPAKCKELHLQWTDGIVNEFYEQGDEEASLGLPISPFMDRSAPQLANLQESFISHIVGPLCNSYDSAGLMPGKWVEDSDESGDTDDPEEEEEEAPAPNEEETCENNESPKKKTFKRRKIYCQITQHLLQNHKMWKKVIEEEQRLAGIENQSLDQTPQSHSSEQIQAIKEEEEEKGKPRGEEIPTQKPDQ
Histone deacetylase 3, sequence (O15379 whole entry): as the sequence (O15379 whole entry, the tested form may be a part) above

For `CCCc1nn(C)c2c(=O)[nH]c(-c3cc(Cc4ccc(C(=O)NO)cc4)ccc3OCC)nc12`, the Papp at 18 h, 50 µM in [1] turned out to be 2.16 ×10⁻⁶ cm/s. Also, the fold induction at 1 µM in “cells [2]” is 6.5. Moreover, the IC50 in [3] is 62 nM; on Histone deacetylase 1 [7] it was 673 nM; on Histone deacetylase 2 [8], 3860 nM; in [9], 1350 nM; in data set [10], 48 nM. The fold induction at 0.1 µM in the data set “cells [4]” is 1.1. In addition, the fold induction at 0.5 µM in “cells [5]” turned out to be 3.2. In data set [6], the CC50 at 72 h came to 14200 nM.

On to `CCCc1nc(C)c2c(=O)[nH]c(-c3cc(CC4CC(C(=O)NO)C4)ccc3OCC)nn12` (stereo not given), for which the IC50 on Histone deacetylase 3 turned out to be 854 nM; at Histone deacetylase 1 [11] it was 286 nM; in data set [12], 5 nM; against Histone deacetylase 2 [13], 1260 nM; in data set [14], 110 nM.

For the compound `CCCc1nn(C)c2c(=O)[nH]c(-c3cc(Cc4ccc(CC(=O)NO)cc4)ccc3OCC)nc12`, in [1], the Papp at 18 h, 50 µM was found to be 2.94 ×10⁻⁶ cm/s. Besides, the IC50 in [3] was 162 nM; at Histone deacetylase 1 [7] it was over 20000 nM; at Histone deacetylase 2 [8] it was over 20000 nM; in data set [9], over 20000 nM; in data set [10], 15 nM. Besides, the CC50 at 72 h in data set [6] is 5490 nM.

As for `CCCc1nc(C)c2c(=O)[nH]c(-c3cc(-c4ccc(C(=O)NO)cc4)ccc3OCC)nn12`, the fold induction at 1 µM in “cells [2]” came out at 2.8. Besides, the Papp at 18 h, 10 µM in data set [15] came out at 2.7 ×10⁻⁶ cm/s. The IC50 in [3] was 326 nM; at Histone deacetylase 1 [7], 4100 nM; on Histone deacetylase 2 [8], over 20000 nM; in data set [10], 2 nM. The fold induction at 0.1 µM in “cells [4]” was determined as 1.3. The fold induction at 0.5 µM in “cells [5]” turned out to be 2.3. Besides, the CC50 at 72 h in data set [6] is over 100000 nM.

Consider `CN1CCc2c(c3ccccc3n2Cc2ccc(C(=O)NO)cc2)C1` [TUBASTATIN A], for which, in [16], the “inhibition (INH)” value is “Not Active”. Besides, the Papp at 18 h, 50 µM in [1] was 1.77 ×10⁻⁶ cm/s. The CC50 at 72 h in data set [6] was […].

For `CCCc1nn(C)c2c(=O)[nH]c(-c3cc(CC4CC(C(=O)NO)C4)ccc3OCC)nc12` (stereo not given), the midpoint of inhibition in data set [17], the IC50, lay at 1800 nM.
